# Laboratory results from patent US10053455B2, “Diazaspiroalkaneone-substituted oxazole derivatives as spleen tyrosine kinase inhibitors” (AB SCIENCE, priority 2014, dated 2018).
# Tests used:
# [1] = target: Btk (Homo sapiens (Human), UniProt Q06187); test: HTRF kinase assay, Btk; format: biochemical; conditions: enzymatic determination
# Description: (§1) Most of the kinases tested in this study were cloned, expressed and purified in the facilities of the inventors. They were expressed either as N-terminus hexahistidine-, hexahistidine-asparagine- or GST-tagged enzymes in a baculovirus or in a Colibacille expression system. Remaining enzymes (JAKs) were purchased from Millipore or Proqinase. For each enzyme, steady state kinetic parameters were determined and validated with known inhibitors.
# (§2) The analysis of the effect of compounds on kinase activity was assessed with the HTRF® KinEASE assay (Cisbio International), an immuno-assay based on the quantification of the level of phosphorylation of a biotinylated peptide substrate using anti-phospho-specific antibody labeled with Europium (Eu^3+) cryptate. This assay comprises two steps: —an enzymatic step, during which the peptide substrate, the kinase, ATP, Mg^2+ and/or Mn^2+ are incubated with varying concentration of drug (from 0 to 10 μM); —a detection step, at the end of the reaction (stopped by addition of EDTA which chelates Mg^2+), the antibody anti-phospho peptide-Eu^3+ (emission 620 nm) and streptavidin XL-665 (emission 665 nm) are added to the reaction mix. […] Results are expressed in delta fluorescence (DF) unit defined as follow DF %=[(ratio−ratio blank)/(ratio blank)]*100, where ratio=(665 nm/620 nm)*10^4. […]
# [2] = target: hERG (Homo sapiens (Human), UniProt Q12809); test: Predictor hERG Fluorescence Polarization binding assay; conditions: 100% = E-4031
# Description: The activity of the test compounds on the hERG potassium channel was evaluated using a binding assay provided by Invitrogen (Predictor hERG Fluorescence Polarization assay Kit PV5365). The test was performed at a single concentration of 3 μM of drug. […] The data are expressed as a percentage of hERG inhibition, 100% corresponding to the inhibition obtained with E-4031 and 0% with the solvent DMSO (negative control).
# [3] = target: c-Ret WT (Homo sapiens (Human), UniProt P07949); test: HTRF kinase assay, c-Ret WT; format: biochemical; conditions: enzymatic determination
# Description: as §1, §2
# [4] = tested on: murine model of asthma; test: Mouse model of asthma: airway responsiveness (FlexiVent); format: in vivo, Balb/c male mice; conditions: ovalbumin-sensitized mice, PO twice daily
# Description: (§3) Balb/c male mice, 8 weeks old, were purchased from Janvier (Le Genest-Saint-Isle; FRANCE) and bred in the animal facility for 4 weeks. Drugs were dissolved in drinking solvent (80% water; 10% Tween 80 and 10% isopropanediol). It was aliquoted and stored at −20° C. Each mouse received drugs twice a day. The weight of animals was calculated before and after treatment.
# (§4) Mice, 9 weeks of age, were sensitized with 50 μg of ovalbumin (Sigma-Aldrich, Germany) adsorbed to 2 mg Al(OH)3 (Prolabo, France) and diluted in physiological saline (0.9% NaCl). Ovalbumin was injected intraperitoneally on days 1 and 7. Sensitization was followed by intranasal challenges with 10 μg of ovalbumin diluted in 0.9% NaCl, each day from day 18 to day 21. On days 17 to 21, animals treated with drugs received 100 μl of a solution at 15 mg/ml, at 7.5 mg/ml or at 3.75 mg/ml administered per os twice a day during 5 days. These treatments corresponded to concentration of 60 mg/mouse kg, 30 mg/mouse kg and 15 mg/mouse kg respectively.
# The airway responsiveness was measured using the invasiveness FlexiVent® (SCIREQ) technique. […] The baseline values were measured after saline solution nebulization and airway hyperresponsiveness evaluated after nebulization of a 0.26M metacholine solution (50 mg/ml).
# [5] = tested on: murine model of asthma; test: Mouse model of asthma: eosinophils recruitment in bronchio-alveolar lavage; format: in vivo, Balb/c male mice
# Description: as §3, §4
# Bronchio-alveolar lavage (BAL) was performed after the animals were disconnected from the FlexiVent®. The airways were lavaged with 5 ml (10 times 0.5 ml) ice cold 0.9% NaCl 2.6 mM EDTA. BAL samples were centrifuged at 1200 rpm for 5 minutes at 4° C. Pellet cells were collected and erythrocytes lysed by adding 1.5 ml deionized water for 30 seconds. After neutralization with 0.5 ml of 0.6M KCl, cells were centrifuged at 1200 rpm for 5 minutes at 4° C. BAL samples were used to count the total cell number and to perform cytospins (shandon, Pontoise). Cell types were identified by morphological criteria after Hemacolor (Merck) staining.
# Mice were sensitized and challenged with ovalbumin as described in protocol assays above. The mice were distributed in groups of 5-6 animals that were treated twice daily with 7.5 to 60 mg/Kg of anti-SYK/KIT drugs (PO).
# [6] = tested on: murine model of arthritis; test: K/BxN serum mouse model of rheumatoid arthritis: ankle thickening and arthritis score; format: in vivo, C57Bl/6 mice
# Description: K/B×N serum pools were prepared from arthritic mice at 8 weeks of age. The mice were pre-treated with SYK inhibitors by two per os administration for two days before induction of arthritis. Arthritis was induced in the C57Bl/6 mice (8 weeks of age) by intraperitoneal injection (7.5 μl serum per g weight) at days 0 and 2.
# The treatment with SYK inhibitors was continued for 13 days. The control mice were injected with solvent before the induction of arthritis and during the course of the disease. The compounds were dissolved in a solution containing 10% of Tween 80 and 10% 1-2 propandiol. It was prepared before administration.
# Ankle thickening measure, being defined as the difference in ankle thickness from the day 0, was measured using a precision calliper. Arthritis/clinical score was defined by sum of scores of each lim (0 no disease; 1 mild swelling of paw or of just of few digits; 2 clear joint inflammation; 3 severe joint inflammation) maximum score=12.
# K/B×N was a murine model of spontaneous rheumatoid arthritis that mimics many of the clinical and histological features of human disease with synovitis predominantly in the distal small joints. Arthritis was induced by intraperitoneal injection of arthritis serum of K/B×N mice at days 0 and 2 as described in protocol assays above. Compound 001 was tested at 15 and 50 mg/kg/day b.i.d. and compared with Masitinib at 50 mg/kg/day b.i.d., an AB Science drug candidate for treating rheumatoid arthritis (Arthritis Res Ther., (2009), 11(3):R95). Ankle thickening and arthritis score were used to monitor the in vivo activity of the compounds.
# Sequence of Btk (Q06187 whole entry, species assumed): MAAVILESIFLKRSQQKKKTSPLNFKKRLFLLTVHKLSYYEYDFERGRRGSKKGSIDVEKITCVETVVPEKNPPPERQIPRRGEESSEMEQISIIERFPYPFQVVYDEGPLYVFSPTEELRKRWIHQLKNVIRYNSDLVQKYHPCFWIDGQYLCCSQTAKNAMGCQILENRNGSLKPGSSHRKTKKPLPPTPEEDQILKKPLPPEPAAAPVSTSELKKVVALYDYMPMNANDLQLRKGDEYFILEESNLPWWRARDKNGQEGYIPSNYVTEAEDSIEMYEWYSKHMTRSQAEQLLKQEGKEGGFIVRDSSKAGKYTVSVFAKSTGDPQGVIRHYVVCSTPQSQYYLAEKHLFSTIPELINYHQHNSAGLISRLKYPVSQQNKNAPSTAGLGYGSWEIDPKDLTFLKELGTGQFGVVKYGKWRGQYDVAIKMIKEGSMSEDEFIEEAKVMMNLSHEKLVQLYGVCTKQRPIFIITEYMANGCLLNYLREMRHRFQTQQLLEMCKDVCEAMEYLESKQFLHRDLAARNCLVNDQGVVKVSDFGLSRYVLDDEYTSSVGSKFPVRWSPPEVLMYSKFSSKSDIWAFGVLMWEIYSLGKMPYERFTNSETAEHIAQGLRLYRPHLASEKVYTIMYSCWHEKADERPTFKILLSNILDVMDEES
# Sequence of hERG (Q12809 whole entry): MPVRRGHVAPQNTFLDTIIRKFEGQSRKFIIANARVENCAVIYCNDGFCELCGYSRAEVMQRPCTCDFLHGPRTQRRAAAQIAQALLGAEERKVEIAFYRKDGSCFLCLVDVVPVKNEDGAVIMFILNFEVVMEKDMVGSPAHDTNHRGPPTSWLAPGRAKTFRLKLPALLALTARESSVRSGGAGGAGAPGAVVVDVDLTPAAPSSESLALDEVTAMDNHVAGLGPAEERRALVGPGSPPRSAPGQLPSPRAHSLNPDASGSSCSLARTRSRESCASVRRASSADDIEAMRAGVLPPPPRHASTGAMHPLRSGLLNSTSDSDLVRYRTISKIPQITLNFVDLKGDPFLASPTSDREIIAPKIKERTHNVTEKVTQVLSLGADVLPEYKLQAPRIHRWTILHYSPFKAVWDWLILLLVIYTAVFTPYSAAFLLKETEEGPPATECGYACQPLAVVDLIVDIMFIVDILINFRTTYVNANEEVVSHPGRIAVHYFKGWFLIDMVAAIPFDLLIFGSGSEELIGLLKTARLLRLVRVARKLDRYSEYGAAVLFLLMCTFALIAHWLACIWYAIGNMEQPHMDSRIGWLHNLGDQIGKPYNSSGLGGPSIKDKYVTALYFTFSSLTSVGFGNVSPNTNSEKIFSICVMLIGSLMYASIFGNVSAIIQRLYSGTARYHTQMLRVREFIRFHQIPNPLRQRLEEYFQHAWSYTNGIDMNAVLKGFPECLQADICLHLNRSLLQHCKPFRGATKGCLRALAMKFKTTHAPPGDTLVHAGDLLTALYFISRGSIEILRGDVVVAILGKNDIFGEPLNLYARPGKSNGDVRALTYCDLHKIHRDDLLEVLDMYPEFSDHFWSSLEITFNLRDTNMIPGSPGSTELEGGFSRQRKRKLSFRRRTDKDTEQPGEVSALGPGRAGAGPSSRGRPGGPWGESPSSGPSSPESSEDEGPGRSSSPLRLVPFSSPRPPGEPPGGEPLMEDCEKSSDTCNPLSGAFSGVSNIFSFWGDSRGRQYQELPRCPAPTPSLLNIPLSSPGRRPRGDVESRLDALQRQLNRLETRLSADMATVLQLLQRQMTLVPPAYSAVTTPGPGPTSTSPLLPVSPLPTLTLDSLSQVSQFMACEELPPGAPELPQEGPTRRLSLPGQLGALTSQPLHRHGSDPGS
# Sequence of c-Ret WT (P07949 29-1114): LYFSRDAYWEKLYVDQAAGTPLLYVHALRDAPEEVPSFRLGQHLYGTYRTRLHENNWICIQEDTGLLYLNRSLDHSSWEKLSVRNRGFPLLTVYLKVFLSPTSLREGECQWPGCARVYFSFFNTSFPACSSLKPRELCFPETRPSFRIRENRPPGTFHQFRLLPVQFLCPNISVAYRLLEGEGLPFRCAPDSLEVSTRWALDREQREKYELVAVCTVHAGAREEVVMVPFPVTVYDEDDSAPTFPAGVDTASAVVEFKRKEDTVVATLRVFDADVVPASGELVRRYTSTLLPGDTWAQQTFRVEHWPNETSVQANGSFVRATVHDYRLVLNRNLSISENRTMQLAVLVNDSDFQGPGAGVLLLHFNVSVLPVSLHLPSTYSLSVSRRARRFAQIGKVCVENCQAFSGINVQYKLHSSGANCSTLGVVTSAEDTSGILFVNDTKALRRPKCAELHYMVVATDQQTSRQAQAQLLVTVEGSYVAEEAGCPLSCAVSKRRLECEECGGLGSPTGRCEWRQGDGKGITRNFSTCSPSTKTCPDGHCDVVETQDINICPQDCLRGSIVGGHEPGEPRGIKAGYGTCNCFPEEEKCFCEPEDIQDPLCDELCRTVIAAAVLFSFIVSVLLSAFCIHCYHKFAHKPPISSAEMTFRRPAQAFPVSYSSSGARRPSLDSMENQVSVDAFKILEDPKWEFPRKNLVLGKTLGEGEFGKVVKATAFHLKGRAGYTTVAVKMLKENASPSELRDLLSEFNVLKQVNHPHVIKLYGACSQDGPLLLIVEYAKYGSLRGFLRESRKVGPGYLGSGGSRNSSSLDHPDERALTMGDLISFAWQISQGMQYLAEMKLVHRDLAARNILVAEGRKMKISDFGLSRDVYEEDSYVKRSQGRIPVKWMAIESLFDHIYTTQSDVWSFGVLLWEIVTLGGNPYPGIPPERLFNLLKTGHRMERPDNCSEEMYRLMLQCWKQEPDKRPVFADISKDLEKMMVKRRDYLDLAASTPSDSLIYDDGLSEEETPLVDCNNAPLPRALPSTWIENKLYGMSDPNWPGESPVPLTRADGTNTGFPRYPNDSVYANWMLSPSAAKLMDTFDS
smiles,measurement,setting,value
"Cc1ccnc(Nc2cccc(-c3cnc(N4CCNC(=O)C45CC5)o3)c2)n1 [Compound 001, 4-{5-[3-(4-Methyl-pyrimidin-2-ylamino)-phenyl]-oxazol-2-yl}-4,7-diaza-spiro[2.5]octan-8-one]",IC50,[1],20 µM
same,inhibition at 3 µM,[2],0%
same,IC50,[3],10 µM
same,bronchial hyper-responsiveness,[4],reduced bronchial hyper-responsiveness in a dose-dependent manner
same,Percentage of Eosinophils recruitment in Bronchio-alveolar lavage (BAL),"[5]; Experiment #2, 2 × 15 mg/kg/day PO",−14%
same,Percentage of Eosinophils recruitment in Bronchio-alveolar lavage (BAL),"[5]; Experiment #2, 2 × 30 mg/kg/day PO",−47%
same,Ankle Thickening Score,[6]; 15 mg/kg b.i.d.,−17%
same,Arthritis Score,[6]; 15 mg/kg b.i.d.,−23%
same,Ankle Thickening Score,[6]; 50 mg/kg b.i.d.,−52% P < 0.005
same,Arthritis Score,[6]; 50 mg/kg b.i.d.,−68% P < 0.005
same,reduction of ankle thickening,[6]; 2×50 mg/kg/day,52%
same,reduction of arthritis score,[6]; 2×50 mg/kg/day,68%
